Laboratory results from patent publication US12065408B2, “Benzaldehyde compounds with direct polymer destabilizing effects to treat sickle cell disease” (VIRGINIA COMMONWEALTH UNIVERSITY, priority 2022, dated 2024).
One block for each compound: values may come before it.

How the values were obtained:
RBC sickling [1] = assay: Sickle inhibition in SS blood suspensions under hypoxia (2.5% oxygen); assay type: cell-based; conditions: Homo sapiens, 2 mM compound, homozygous SCD blood, 4 biological replicates
Experimental: All compounds (Comp 1-13) and comparator molecules (VZHE-039, PP-14, INN-310, and Voxelotor) were evaluated following established procedures. Blood samples from individual donors with homozygous SCD (obtained with informed consent) were diluted using Hemox buffer solution with the addition of glucose (10 mM) and BSA (0.2%) to adjust hematocrit of the blood suspensions to 20%, which standardizes the procedure to normalize the ratio of RBCs to drug, for assay consistency and reproducibility. Briefly, blood suspensions were incubated under room air in the presence of various concentrations of test compounds (0-2 mM) at 37° ° C. for 1 hour in 96-well round bottom plates. Subsequently, the suspensions were incubated with a hypoxic gas mixture (2.5% Oxygen gas/balance Nitrogen gas) at 37° C. for up to 2 hours prior to fixation with 2% glutaraldehyde solution without exposure to air. The fixated blood aliquots were evaluated by microscopic morphological analysis (image analysis on Image J software) to identify the proportion of sickled and non-sickled RBCs, and sickle inhibition calculated based on the % change from negative control (DMSO).

RBC sickling [2] = assay: Oxygen-independent sickle inhibition in SS blood suspensions under anoxia (100% nitrogen); assay type: cell-based, human; conditions: for inhibition at 2000 µM: Homo sapiens, 2 mM compound, homozygous SCD blood, 4 biological replicates; for inhibition at 2000 µM / polymer destabilizing effects (sickle inhibition in anoxia), in words: anoxia; for polymer destabilizing effects in anoxia time-course experiments, in words: up to 2.5 h
Experimental: To establish oxygen-independent sickle inhibition, the incubation chamber was subsequently opened and exposed to room air for 15 minutes to ensure complete re-oxygenation and reversal of the sickled cells to normal round cells. Reversal was confirmed by microscopy. The incubation chamber was then closed, and the assay was repeated with incubation in 100% nitrogen gas for 1 hour (for screening), or up to 2.5 h (for time-course studies), with collection and fixation of blood aliquots at defined intervals. Aliquot samples were again subjected to microscopic morphological analysis of bright field images to identify the proportion of sickled and non-sickled cells, and sickle inhibition calculated.

Hb = biological target: T1, Hb (Homo sapiens, UniProt P69905); assay: Occupancy/dose-dependent p50 shift in human non-sickle blood; assay type: cell-based; conditions: compared to Voxelotor at equivalent drug-Hb occupancy levels
T1 construct: Hemoglobin modification, studies using non-sickling AA blood; from tissue; host or cells: non-sickling AA blood (red cells)
Experimental: Non-sickling human blood was incubated with test compounds at 0.25-2 mM concentrations at 37 °C for 1 hour in 96-well round bottom plates. At conclusion, RBCs were washed once with PBS, followed by lysis with deionized water. Approximately 100 μl aliquots of individual lysates were added to 3 mL of 0.1M potassium phosphate buffer, pH 7.0 in a cuvette and subjected to hemoximetry analysis using a Hemox™ Analyzer (TCS Scientific Corp.) as previously described. Change in p50 values (Δp50) was calculated by subtracting the p50 values of treated samples from the value of the control sample and expressing the difference as a percentage of control p50 values.

[3] = 14-day repeat-dose safety (clinical observations, histopathology) in rats; assay type: in vivo, rat; conditions: 100 mg/kg oral once daily for 14 days
Experimental: (§1) Repeat oral doses of each compound were administered by oral gavage for 14 days to male and female SD rats (n=3). […] Steady state exposures for the final dosing interval on Day 14 were similar to total compound exposure from single-dose PK.
(§2) Repeat doses of each compound were administered once daily as oral suspensions by gavage in 0.5% carboxy methylcellulose for 14 days at 100 mg/kg. Whole blood was collected at 7 time-points for up to 24 hours during the final dosing interval on Day 14. Clinical observations, body weights, and food consumption were recorded throughout the 14 day study. Clinical chemistry and hematologic parameters were assessed, and histopathology was performed on organs after 14 days of exposure to study drug.

[4] = ADME properties / oral bioavailability; conditions: in vivo
[5] = Single-dose oral pharmacokinetics in rats; assay type: in vivo, rat
Experimental: Single-dose pharmacokinetics (PK) in male Sprague Dawley (SD) rats (n=4) were assessed for each compound, and the maximum or peak whole blood concentration and area under the curve are shown in Table 5.
Single doses of each compound were administered as oral suspensions by gavage in 0.5% carboxy methylcellulose at 100 mg/kg. Whole blood levels were collected for at least 72 hours after dose administration. Bioanalyses were performed with liquid chromatography-tandem mass spectrometry […].

[6] = 14-day repeat-dose oral pharmacokinetics in rats; assay type: in vivo, rat; conditions: 14-day repeat oral doses
Experimental: as §1, §2

T1 sequence (P69905 2-142 limits assumed): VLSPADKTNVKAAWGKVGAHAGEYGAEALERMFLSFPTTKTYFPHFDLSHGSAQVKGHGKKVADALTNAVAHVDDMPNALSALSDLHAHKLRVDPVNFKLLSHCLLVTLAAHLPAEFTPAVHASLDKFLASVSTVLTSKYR
T1 sequence (P68871 2-147 partner limits assumed): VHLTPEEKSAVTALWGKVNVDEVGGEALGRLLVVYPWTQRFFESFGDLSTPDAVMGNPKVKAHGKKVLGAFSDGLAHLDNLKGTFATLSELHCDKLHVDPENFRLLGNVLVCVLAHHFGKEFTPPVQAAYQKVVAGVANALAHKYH

SMILES: O=Cc1c(O)cccc1OCc1ccncc1 [Comp 3, 2-hydroxy-6-(pyridin-4-ylmethoxy)benzaldehyde]
- inhibition at 2000 µM (RBC sickling [1]): 54.1 ± 14.7%
- inhibition at 2000 µM (RBC sickling [2]): 26.2 ± 8.6%

SMILES: O=Cc1c(O)cccc1OCc1ncccc1Cl [Comp 8, 2-((3-chloropyridin-2-yl)methoxy)-6-hydroxybenzaldehyde]
- inhibition at 2000 µM (RBC sickling [1]): 69.7 ± 8%
- inhibition at 2000 µM (RBC sickling [2]): 18.3 ± 8.4%

SMILES: O=Cc1c(F)cc(F)cc1OCc1ccccn1 [Comp 9, 2,4-difluoro-6-(pyridin-2-ylmethoxy)benzaldehyde]
- inhibition at 2000 µM (RBC sickling [1]): 68.1 ± 29.8%
- inhibition at 2000 µM (RBC sickling [2]): 0%
- polymer destabilizing effects (sickle inhibition in anoxia), in words (RBC sickling [2]): completely negates the polymer destabilization effects

SMILES: CC(C)n1nccc1-c1ncccc1COc1cccc(O)c1C=O [Voxelotor, reference compound]
- inhibition at 2000 µM (RBC sickling [1]): 79.9 ± 6.2%
- inhibition at 2000 µM (RBC sickling [2]): 1.5 ± 5.5%
- polymer destabilizing effects (sickle inhibition in anoxia), in words (RBC sickling [2]): did not demonstrate any sickle inhibition in anoxic conditions

SMILES: O=Cc1c(F)cc(F)cc1OCc1ncccc1F [Comp 13, 2,4-difluoro-6-((3-fluoropyridin-2-yl)methoxy)benzaldehyde]
- inhibition at 2000 µM (RBC sickling [1]): 63.6 ± 24.3%
- inhibition at 2000 µM (RBC sickling [2]): -0.5 ± 2.7%
- polymer destabilizing effects (sickle inhibition in anoxia), in words (RBC sickling [2]): completely negates the polymer destabilization effects

- changes in p50 of Hb in human blood (Hb): relatively weak changes in p50
- absorption, distribution, metabolism and elimination (ADME) properties [4]: acceptable
SMILES: O=Cc1c(O)cccc1OCc1cccnc1 [Comp 1, 2-hydroxy-6-(pyridin-3-ylmethoxy)benzaldehyde]
- inhibition at 2000 µM (RBC sickling [1]): 74.8 ± 15.9%
- inhibition at 2000 µM (RBC sickling [2]): 71.9 ± 16%
- polymer destabilizing effects (sickle inhibition in anoxia), in words (RBC sickling [2]): most potent polymer destabilizers discovered to date
- polymer destabilizing effects in anoxia time-course experiments, in words (RBC sickling [2]): most potent and sustained polymer destabilizing effects observed to date
- clinical and histopathologic changes after 14 days of exposure [3]: No clinical or histopathologic changes
- oral exposure levels, single dose, in words [5]: greatest oral exposure levels observed to date

- changes in p50 of Hb in human blood (Hb): relatively weak changes in p50
- absorption, distribution, metabolism and elimination (ADME) properties [4]: acceptable
SMILES: O=Cc1c(O)cccc1OCc1ccccn1 [Comp 2, 2-hydroxy-6-(pyridin-2-ylmethoxy)benzaldehyde]
- inhibition at 2000 µM (RBC sickling [1]): 72.8 ± 13%
- inhibition at 2000 µM (RBC sickling [2]): 63.2 ± 17.2%
- polymer destabilizing effects (sickle inhibition in anoxia), in words (RBC sickling [2]): most potent polymer destabilizers discovered to date
- polymer destabilizing effects in anoxia time-course experiments, in words (RBC sickling [2]): most potent and sustained polymer destabilizing effects observed to date
- clinical and histopathologic changes after 14 days of exposure [3]: No clinical or histopathologic changes
- oral exposure levels, repeat dose, in words [6]: greatest oral exposure levels observed to date
- oral exposure levels, single dose, in words [5]: greatest oral exposure levels observed to date

SMILES: O=Cc1c(O)cccc1OCc1cncnc1 [Comp 10, 2-hydroxy-6-(pyrimidin-5-ylmethoxy)benzaldehyde]
- inhibition at 2000 µM (RBC sickling [1]): 76.6 ± 10.9%
- inhibition at 2000 µM (RBC sickling [2]): 75.6 ± 18.5%

SMILES: O=Cc1c(O)cccc1OCc1cccc(CO)n1 [VZHE-039, reference compound]
- inhibition at 2000 µM (RBC sickling [1]): 75.3 ± 14.3%
- inhibition at 2000 µM (RBC sickling [2]): 68.9 ± 17.7%
- clinical and histopathologic changes after 14 days of exposure [3]: Both clinical and histopathologic changes in the liver, including hepatocyte necrosis

SMILES: O=Cc1c(O)cccc1OCc1cccnc1Cl [Comp 7, 2-((2-chloropyridin-3-yl)methoxy)-6-hydroxybenzaldehyde]
- inhibition at 2000 µM (RBC sickling [1]): 36.1 ± 19.7%
- inhibition at 2000 µM (RBC sickling [2]): 9.4 ± 10.7%

SMILES: COc1ccc(OCc2cccc(CO)n2)c(C=O)c1 [TD-7, reference compound]
- inhibition at 2000 µM (RBC sickling [1]): 80.6 ± 5.8%
- inhibition at 2000 µM (RBC sickling [2]): 20.4 ± 2.9%

SMILES: O=Cc1c(O)cccc1OCc1ncccn1 [Comp 11, 2-hydroxy-6-(pyrimidin-2-ylmethoxy)benzaldehyde]
- inhibition at 2000 µM (RBC sickling [1]): 67.4 ± 18.2%
- inhibition at 2000 µM (RBC sickling [2]): 45.1 ± 10.8%

SMILES: O=Cc1c(OCc2cccnc2)ccc(F)c1O [Comp 12, 3-fluoro-2-hydroxy-6-(pyridin-3-ylmethoxy)benzaldehyde]
- inhibition at 2000 µM (RBC sickling [1]): 68.6 ± 12%
- inhibition at 2000 µM (RBC sickling [2]): 28.7 ± 6.9%
- polymer destabilizing effects (sickle inhibition in anoxia), in words (RBC sickling [2]): significantly reduced the potency of polymer inhibition

SMILES: COc1ccc(OCc2ccccn2)c(C=O)c1 [INN-310, reference compound]
- inhibition at 2000 µM (RBC sickling [1]): 69.9 ± 20%
- inhibition at 2000 µM (RBC sickling [2]): 17.9 ± 7%
- polymer destabilizing effects (sickle inhibition in anoxia), in words (RBC sickling [2]): only weak potency in anoxia

SMILES: O=Cc1c(O)cccc1OCc1cccnc1F [Comp 6, 2-((2-fluoropyridin-3-yl)methoxy)-6-hydroxybenzaldehyde]
- inhibition at 2000 µM (RBC sickling [1]): 67.1 ± 5.8%
- inhibition at 2000 µM (RBC sickling [2]): 32.6 ± 28.5%

SMILES: O=Cc1c(O)cccc1OCc1ccccc1 [Reference A, 2-(benzyloxy)-6-hydroxybenzaldehyde, reference compound]
- polymer destabilizing effects (sickle inhibition in anoxia), in words (RBC sickling [2]): potent polymer destabilizing effects

SMILES: O=Cc1c(O)cccc1OCc1cncc(F)c1 [Comp 4, 2-((5-fluoropyridin-3-yl)methoxy)-6-hydroxybenzaldehyde]
- inhibition at 2000 µM (RBC sickling [1]): 64.3 ± 24.5%
- inhibition at 2000 µM (RBC sickling [2]): 69.6 ± 13.4%

- changes in p50 of Hb in human blood (Hb): relatively weak changes in p50
- absorption, distribution, metabolism and elimination (ADME) properties [4]: acceptable
SMILES: O=Cc1c(O)cccc1OCc1ncccc1F [Comp 5, 2-((3-fluoropyridin-2-yl)methoxy)-6-hydroxybenzaldehyde]
- inhibition at 2000 µM (RBC sickling [1]): 66.6 ± 9.4%
- inhibition at 2000 µM (RBC sickling [2]): 66.5 ± 21.1%
- clinical and histopathologic changes after 14 days of exposure [3]: No clinical or histopathologic changes
- oral exposure levels, repeat dose, in words [6]: greatest oral exposure levels observed to date
- oral exposure levels, single dose, in words [5]: greatest oral exposure levels observed to date
